# Measured values from patent EP4556003A1, “ANTI-OBESITY AND ANTI-DIABETIC ACTIVITY OF BROMINATED DITERPENES FROM RED ALGAE OF THE GENUS LAURENCIA AND APPLICATIONS THEREOF” (priority 2023, dated 2025).
# Test system: 3T3-L1 adipocytes
# Assay: Oil red o staining of intracellular lipid accumulation
# Assay type: cell-based, Mouse
# Protocol: Mouse 3T3-L1 preadipocytes were maintained in proliferation medium containing DMEM supplemented with 10% (v/v) heat inactivated NBCS and 1% (v/v) penicillin-streptomycin at 37 °C with 5% CO2, humidified atmosphere. Cells were seeded in T-75 flasks at a density of 25×10^4 cells/flask. Cultures never became completely confluent according to the manufacturer's instructions. They were passaged using trypsin-EDTA solution once they reached 70-80% confluency. For differentiation, 3T3-L1 cells were seeded and after 24 h (day 1), cell differentiation was induced by changing the medium to high glucose DMEM containing 10% (v/v) heat inactivated FBS, 1% penicillin-streptomycin, 10 µg/mL insulin, 0.25 µM Dexamethasone (GAP), 0.5 mM IBMX (=differentiation medium I). On day 3, the medium was changed to high glucose DMEM containing 10% FBS, 1% penicillin- streptomycin, and 10 µg/mL insulin (=differentiation medium II). Thereafter, medium was changed every other day switching between differentiation medium I and differentiation medium II until day 12 or 23, when adipocytes were harvested. Control group preadipocytes were seeded at a higher density and harvested after two days. Test compounds were administered either at the initiation of differentiation, or after 15 days of differentiation and with every medium change. To determine the effect on preadipocyte differentiation, cells were seeded and after 24 h they were treated with neorogioldiol. Neorogioldiol was maintained in the culture medium throughout cell differentiation period. To determine the effect of neorogioldiol on mature adipocytes, cells were seeded and induced to differentiate for 14 days, then on day 15 neorogioldiol was added to the differentiation medium for 24 h before cells were harvested. Each compound used was diluted in a 90% carbowax™ 400, 10% (v/v) absolute ethanol solution serving as a control solvent. The final concentration in culture was 0.09% (v/v) carbowax and 0.01% (v/v) ethanol. […]
# Oil red o staining was applied to measure lipid accumulation intracellularly. Briefly, after 12 or 23 days of differentiation, the cell culture medium was removed and the 3T3-L1 adipocytes were fixed in 3.7% formaldehyde for 60 min at room temperature. Next, a solution of 0.21% oil red o was filtered using a 0.45 µm filter followed by incubation of the fixed cells for 45 min at room temperature. Excess dye was removed and cells were washed twice with PBS. Fresh PBS was added and the lipid droplets within the differentiated 3T3-L1 cells were visualized and photographed by microscopy. For quantitative analysis, oil red o staining was eluted with 100% isopropanol and the absorbance was measured at 510 nm using the Infinite® 200 PRO microplate plate reader (Tecan, Zurich, Switzerland).
substance,measurement,setting,value
neorogioldiol,lipid accumulation,"differentiation in presence of serial concentrations 62.5, 31.25, 15.625, 7.81 and 3.9 µM, dose-dependent",reduced lipid accumulation
same,lipid accumulation,"differentiation induced in the presence of compound, after 12 days, 1 at 62.5 µM, 2 at 25 µM",significantly reduced lipid accumulation
same,lipid accumulation,"mature adipocytes: differentiated 15 days, then 62.5 µM for 8 more days",decreased lipid accumulation
